{
  "source": "patent US20060088897A1",
  "about": "“Modulators” (priority 2003, published 2006)",
  "type_in_all_cases": "cell-based",
  "key": {"N1E-115 cells [1]": {"test_system": "N1E-115 cells", "experiment": "Microinjection of peptides into partially serum starved N1E-115 cells, phalloidin staining and confocal microscopy of cell morphology", "conditions": "for effect on formation of lamellipodia, filopodia or neurites concluded from microinjection: FIG. 8A; for cell morphology after peptide microinjection: peptide injected at 10 μg/ml, cells serum starved 2-4 h, FIG. 7A, 8A", "description": "Cells are starved for 2-3 h and then either injected with peptides (10 μg/ml) or exposed to peptides with bioporter reagent. Cells are incubated for a further 2 h before being stained with phalloiden and examined by confocal microscopy (as described in the materials and methods section). (A) The upper cells is injected with αP1 (a), or all cells injected with αP1*(b), or exposed to αP2 with bioporter reagent (c). […] Results are expressed as means+/−SEM of 3 experiments (n=333-426 cells). […] (D) Cells are exposed to bioporter reagent with αP2 and after 6 h double stained with αPAK and vinculin antibodies; (a) Vinculin/αPAK, (b) Vinculin and (c) αPAK. Bar=10 μM. Control bars are with IgG with bioporter/microinjection.\n(§1) Cells are starved for 2-3 h and then injected with peptides. Cells are then incubated for 2 h before being stained with phalloiden and examined by confocal microscopy (as described in the materials and methods section). (A) Cells are injected with IgG (a), with αP2 (b), with βP2 (c) and γP2 (d). Bar=10 μM. (B) Cells are exposed to bioporter with peptides and presence of neurites, pronounced filopodia and pronounced lamellipodia/ruffles scored (definitions as in FIG. 7). (C) Cells are either exposed to bioporter reagent coated peptides (αP2 and βP2) and then IGF or serum starvation used to activate cells. For γP2 cells are injected with peptide and stimulated with serum. Filopodia and lamellipodia are scored by using time-lapse phase contrast microscopy. +/−SEM of 3 experiments (n=900). Control peptide is taken from the kinase domain and common to the three PAK isoforms.\nCells are plated out at 1.0×10^5 cells in 1 ml in a 35 mm dish containing 2 laminin coated coverslips. The coverslips are first marked with a grid using a fine permanent marker and then coated with laminin and incubated overnight in DMEM, 10% FCS, 1% AB/AM. The media is replaced with serum free media (DMEM, 1% AB/AM) and the cells starved for 1 hour so that they flattened and are easier to inject. The peptides are injected at 10 μg/ml in PBS, Rat IgG at 1 mg/ml is added to act as a marker for injected cells.\nThe cells are injected using an Eppendorf microinjection apparatus on an Axioplan inverted microscope equipped with a heated stage maintained at 37° C. and a 5% CO2 chamber. Humidity is maintained by a dish of sterile water inside the CO2 chamber. Cells in a grid square are injected and positive injection checked visually at the time of injection or after fixation and staining for the injected marker. After injection the cells are returned to the incubator for a further 2 hours. Giving a total time without serum of 4 hours.\nThe only difference between these two peptides being that the latter peptide is phosphorylated on serine and this modification prevents it from binding Nck (Zhao et al., 1998). To investigate the effects of peptides we first serum starve the cells for 2-4 h to activate Cdc42Hs and Rac."}, "N1E-115 cells [2]": {"test_system": "N1E-115 cells", "experiment": "Phase contrast time-lapse analysis of filopodia and lamellipodia formation in a gradient of IGF", "conditions": "followed for 60 min; FIG. 8C", "description": "as §1\nTime lapse microscopy is carried out on a heated stage (37° C.) in an atmosphere of humidified air and 5% CO2. Cells are video recorded using a, Axiovert 135 microscope, Palmix TM-6CN video camera and Sony-u-matic V0-5800 PS video recorder. Individual images are captured using Bio-rad COMOS software and manipulated with Adobe photoshop. Confocal microscopy is carried out using a LSM 410 Zeiss scanning microscope with 3 single line lasers at 488 nM (argon), 543 nM and 633 nM, (HeNe). […]"}, "N1E-115 cells [3]": {"test_system": "N1E-115 cells", "experiment": "Cell guidance assay at Laminin/CSPG boundary (axonal guidance)", "conditions": "for neurite morphology: serum starved cells, FIG. 9A", "description": "Effect of PAK peptides on neurite morphology. Cells are exposed to control peptide, αP 1*, αP2, βP2, or γP2 and neurite morphology assessed. (B) Cells are plated on coverslips that been treated to create a Laminin/CSGP boundary. After 6 h cells are examined for their ability to project neurites that crossed the substrate boundary. Cells exposed to bioporter coated peptides, (a) αP2, (b) βP2, and (c) γP2. […] Results are means+/−SEM (n=161-263). (C) Cells are exposed to peptides and after 6 h are scored for their ability to cross boundary from Laminin to CSPG.\nThe coverslips are washed and sterilised and then coated in one of the following ways.\nA second layer of laminin is applied as a drop mixed with 1 μg/ml TRITC label. Coverslips are left for 1 hour at RT and then rinsed twice with sterile water before allowing to dry before use. (iii) Attractive/repulsive boundary. Slides are coated with CSPG 5 μg/ml for 1 hour at 37° C. in a humid chamber then rinsed once in sterile H2O and allowed to air dry before the drop of laminin at 10 μg/ml is applied to the centre of the coverslip and left for 1 hour at RT before rinsing twice in sterile water and allowing to dry before use. This coating is also done in reverse with the laminin applied first and then the tenascin or the CSPG applied second.\nThe cells are then seeded onto the prepared coverslips at 2×10^5 cells in 1 ml in a 35 mm petri dish, in DMEM, 10% FCS, and 1% AB/AM. Cells are allowed to attach overnight. The media is then removed and the coverslips rinsed in serum free media and incubated overnight (18 h) in serum free media. After the starvation the cells are fixed and stained to show the morphology of the cells at the boundary. Only neurites expressing neurofilamant are scored.\nAfter 5 minutes, the cells are washed once with serum free DMEM media and then 1 ml of serum free DMEM is added to the tube containing the peptide and BioPorter mix it is vortexed gently before being added to the cells. The cells are incubated for 4 hours at 37° C. After the 4 hour incubation the cells are then incubated for a further 2 hours in 5% FCS DMEM or for cells undergoing a substrate guidance assay the 2 hour incubation is in serum free DMEM. The cells are fixed and stained.\nNeurofilament positive neurites are scored for how they respond to Laminin/CSPG boundary. […] However, neurites do have distinct morphologies (FIG. 9A). Thus α, β and γ PAK are not essential for neurite outgrowth."}, "N1E-115 cells [4]": {"test_system": "N1E-115 cells", "experiment": "Axonal guidance towards IGF (preliminary experiments)", "conditions": "unpublished data", "description": "In preliminary experiments we have also examined the effect of the PAK peptides on axonal guidance towards IGF in N1E-115 cells."}, "Bac1 macrophages": {"test_system": "Bac1 macrophages", "experiment": "Time lapse / microinjection analysis of Bac1 macrophage morphology (CSF, LPA gradients, C3 toxin)", "description": "(A) Bac1 cells are grown (24 h) in four different ways and then stained with phalloidin to visualise F-actin. With serum alone (a), without CSF/serum (b), with CSF/serum (c), and with CSF alone (d). (B) Cells are starved of CSF for 24 h and then exposed to gradient of CSF (1.32 nM) through a needle. A time lapse sequence is shown over 30 min. (C) Bac1 macrophages are CSF/serum starved for 24 h and then exposed to a gradient of LPA through a needle. A time lapse sequence is shown over 10 min. (D) Bac1 macrophages starved for serum alone and then exposed to a gradient of CSF through a needle and LPA added to the medium. CSF is added in panel (b) followed by LPA. Panels c-f show process retraction on the side of the cell that is not protected by CSF. Arrows in (B) show the formation of filopodia. Arrows in (C) show process retraction. Bar=10 μM. […]\nProteins purified from E. coli and C3 toxin are microinjected in 50 MM Tris pH 7.5, 50 mM NaCl, 5 mM MgCl2 using an Eppendorf microinjector and Axiovert microscope. Successful injection is determined visually at the time of injection and by use of IgG. […]\nTime lapse microscopy is carried out on a heated stage (37° C.) in an atmosphere of humidified air and 5% CO2. Cells are video recorded using a, Axiovert 135 microscope, Palmix TM-6CN video camera and Sony-u-matic V0-5800 PS video recorder. […]"}},
  "note": "Entries after “also recorded” stand apart in the source; their conditions may differ.",
  "data": [
    {"molecule": "SDNGELEDKPPAPPVRMSST [γP2, peptide derived from γPAK]", "values": [
      {"measurement": "effect on formation of lamellipodia, filopodia or neurites concluded from microinjection", "setting": "N1E-115 cells [1]", "result": "blocks filopodia formation"},
      {"measurement": "cell morphology after peptide microinjection", "setting": "N1E-115 cells [1]", "result": "large fan-shaped lamellipodia with no filopodia"},
      {"measurement": "formation of filopodia in response to IGF gradient", "setting": "N1E-115 cells [2]", "result": "inhibit"},
      {"measurement": "ability to detect the Laminin/CSPG boundary", "setting": "N1E-115 cells [3]; FIG. 9C", "result": "do not to recognize the boundary"},
      {"measurement": "neurites crossing over the Laminin/CSPG boundary", "setting": "N1E-115 cells [3]; control approx. 10%, FIG. 9C", "result": "60-70%"},
      {"measurement": "neurite morphology", "setting": "N1E-115 cells [3]", "result": "smooth and flattened with fan shaped growth cones; also recorded: flattened growth cones and very few filopodia"}
    ]},
    {"molecule": "SDSLDNEEKPPAPPLRMNSN [βP2, peptide derived from βPAK]", "values": [
      {"measurement": "effect on formation of lamellipodia, filopodia or neurites concluded from microinjection", "setting": "N1E-115 cells [1]", "result": "blocks lamellipodia formation"},
      {"measurement": "cell morphology after peptide microinjection", "setting": "N1E-115 cells [1]", "result": "numerous filopodia along a newly formed leading edge with no lamellipodia"},
      {"measurement": "formation of lamellipodia in response to IGF gradient", "setting": "N1E-115 cells [2]", "result": "inhibit"},
      {"measurement": "ability to detect the Laminin/CSPG boundary", "setting": "N1E-115 cells [3]; FIG. 9C", "result": "not affected"},
      {"measurement": "neurite morphology", "setting": "N1E-115 cells [3]", "result": "branched and spiky with lamellipodia and ruffles inhibited"},
      {"measurement": "decision making process of moving towards IGF", "setting": "N1E-115 cells [4]", "result": "does slow down the decision making process"},
      {"measurement": "effect on axonal guidance towards IGF", "setting": "N1E-115 cells [4]", "result": "do not affect guidance"}
    ]},
    {"molecule": "CSF: growth factor for Bac1 macrophages; activates Cdc42Hs and Rac1 (protein, UniProt P07141 33-552, looked up) Macrophage colony-stimulating …: KEVSEHCSHMIGNGHLKVLQQLIDSQMETSCQIAFEFVDQEQLDDPVCYLKKAFFLVQDIIDETMRFKDNTPNANATERLQELSNNLNSCFTKDYEEQNKACVRTFHETPLQLLEKIKNFFNETKNLLEKDWNIFTKNCNNSFAKCSSRDVVTKPDCNCLYPKATPSSDPASASPHQPPAPSMAPLAGLAWDDSQRTEGSSLLPSELPLRIEDPGSAKQRPPRSTCQTLESTEQPNHGDRLTEDSQPHPSAGGPVPGVEDILESSLGTNWVLEEASGEASEGFLTQEAKFSPSTPVGGSIQAETDRPRALSASPFPKSTEDQKPVDITDRPLTEVNPMRPIGQTQNNTPEKTDGTSTLREDHQEPGSPHIATPNPQRVSNSATPVAQLLLPKSHSWGIVLPLGELEGKRSTRDRRSPAELEGGSASEGAARPVARFNSIPLTDTGHVEQHEGSSDPQIPESVFHLLVPGIILVLLTVGGLLFYKWKWRSHRDPQTLDSSVGRPEDSSLTQDEDRQVELPV", "values": [
      {"measurement": "protection from LPA mediated process collapse", "setting": "Bac1 macrophages; CSF via needle, LPA added to medium after 1.5 min, FIG. 2D", "result": "can protect the process nearest to the source of CSF from LPA mediated process collapse"},
      {"measurement": "morphological response of Bac1 cells to a gradient of the factor", "setting": "Bac1 macrophages; gradient through a needle, FIG. 2B, 2C", "result": "induces the formation of filopodia and lamellipodia"}
    ]}
  ]
}
